The record followed here is patent publication US9969755B2, “Photodynamic therapy photosensitizers” (The Royal Institution for the Advancement of …, priority 2016, dated 2018).

Data set [1] can be described thus: Time-resolved fluorescence (fluorescence lifetime, TCSPC). It counts as physicochemical. The conditions noted are these: for increase in kdec upon halogen substitution: 4 vs 1, 6 vs 2, 3 vs 1, 5 vs 2; for kdec (fluorescence decay rate constant) / knr (non-radiative decay rate constant, (1−φf)×kdec) / krad (radiative rate constant, φf×kdec): acetonitrile, room temperature. Here is the method:
Fluorescence lifetime measurements were carried out using a Picoquant Fluotime 200 time correlated single photon counting (TCSPC) setup employing an LDH-P-C-470 picosecond diode laser (Picoquant) with an excitation wavelength at 466 nm as the excitation source. The laser was controlled by a PDL 800 B picosecond laser driver from Picoquant. ^1HNMR spectra were recorded on a Bruker AV 400 instrument at 400 MHz. ^13CNMR spectra were recorder on a Varian VNMRS 500 instrument at 125 MHz. ESI mass spectra were measured on a Bruker maXis impact. Laser Flash Photolysis (LFP) experiments were carried out in a commercially available Luzchem 212 LFP setup provided with a Tektronix TDS 2000 digitizer for signal capture. A Nd:Yag laser (Continuum model Surelite I-10 using a second harmonic generators, model number SL-SHG-T1) was used for excitation at a wavelength of 532 nm. Phosphorescence experiments were recorded using a Cary Eclipse Fluorescence Spectrophotometer. Singlet Oxygen phosphorescence was recorded with a Hamamatsu NIR detector (peltier cooled at −62.8° C. operating at 800 V, coupled to a grating monochromator) upon excitation with a 532 nm Nd:YAG laser. A customized Luzchem Research LFP-111 system was employed to collect and process the data. The steady-state fluorescence spectra were recorded between 500-800 nm (depending on each compound) upon exciting at the wavelength of the absorbance maxima. The excitation and emission slits were tuned according to the fluorescence quantum yield of each BODIPY (i.e. for compound 7 excitation slits were 5 nm and for compound 4 we used 2 nm). Fluorescence was recorded every 1 nm using 0.1 s integration time. For the Fluorescence lifetime measurements, the excitation rate was 10 MHz, and the detection frequency was less than 100 kHz. Photons were collected at the magic angle. The fluorescence decay traces were fit using FluoFit (Picoquant) software. For steady-state and time-resolved fluorescence measurements a quartz cuvette with a 10 mm path length was used and all the solutions were prepared in air equilibrated acetonitrile.

Data set [2] concerns clinical biofilm-producing methicillin-resistant Staphylococcus aureus (MRSA). As to the kind of experiment: Photodynamic inactivation of MRSA with ciprofloxacin as stressor. Type of data set: cell-based. An excerpt:
The strain was a clinical biofilm-producing methicillin-resistant Staphylococcus aureus (MRSA). […] Samples “without exposure to light” were kept wrapped with aluminum foil. Samples “with exposure to light” were irradiated with a LED panel having the following characteristics: 1.6 mW/cm^2 power output with a maxima (centered) at 520 nm and a full width at half maximum (FWHM) of 31 nm. The LED panel consisted of 5 lamps and was placed 10 cm from the sample.

For data set [3], the system named is E. coli ATCC 25922. As to the kind of experiment: Photodynamic minimal inhibitory concentration (PD-MIC). It counts as cell-based. The conditions noted are these: Escherichia coli. Here is the method: (§1) The microorganism used for this study is E. coli ATCC 25922. Stock cultures were preserved at −70° C. using glycerol 10% (v/v) as the cryoprotectant, and the strain was grown in Luria Bertania broth (LB). Bacterial culture was prepared inoculating a single colony from a pure culture. After overnight incubation at 37° C. for 18 h, the culture reached a density of approximately 1×10^9 CFU/mL and it was diluted to 10^6 CFU/mL.
We carried out PDI in vitro studies with E. coli. Cells (10^6 CFU/mL) were incubated with 2-fold diluted solutions of compounds 7 and 9 (activated form of 7) in buffer PBS and LB at a proportion of 70:30% (v/v), to obtain concentrations between 40-0.078 μM. Stock solutions of BODIPY 7 and 9 (400 μM) were prepared in acetonitrile. […] PD-MIC was 40 μM for compounds 7 and 9 in dark conditions. Under light irradiation the PD-MIC was 40 μM and 10 μM for 7 and 9 respectively.

Data set [4] deals with E. coli ATCC 25922. As to the kind of experiment: Antibacterial photodynamic inactivation, regular vs hydrogen peroxide stressed bacteria (CFU counts). Type of data set: cell-based. How it is done:
as §1
At the end of the irradiation time, 100 μL aliquots were placed in 96 wells from each tube and serially diluted 10-fold in PBS to obtain dilutions of 10^1 to 10^4 fold, in addition to the original concentration, on agar plates to determine CFU. Viability counts were performed at 0 and 1 hour in either dark or light conditions from each dilution, 10 μL aliquots were plated on LB agar. Plates were streaked in triplicate and incubated for 18 h at 37° C. Each experiment was performed at least three times on different days.
To stress the cells we utilized hydrogen peroxide, known to stimulate ROS production in Gram-negative cells.^79,80 We incubated bacteria from the E. coli strain (10^6 colony forming units (CFU)/mL) with 500 nM hydrogen peroxide for 2 hours at 37° C. Following precipitation and resuspension of this bacteria in media with no H2O2, we added compound 7. In parallel, compound 7 was also added to bacteria that were not exposed to H2O2.

The nature of data set [5]: Intermolecular quenching of ^1O2 phosphorescence by chromanol rings. The conditions noted are these: ^1O2 generated upon irradiation of compound 5, air equilibrated acetonitrile. It counts as physicochemical. The source says:
To test whether 7 is equally efficient at deactivating ^1O2 as α-tocopherol, we generated ^1O2 upon irradiation of compound 5 and monitored the ^1O2 phosphorescence lifetime in the presence of increasing amounts of either 7 or PMHC (an α-tocopherol analogue lacking the phytyl tail).

The nature of data set [6]: Activation of compounds 7 and 8 with dicumyl peroxide (cumyloxyl radicals). Type of data set: physicochemical. The conditions noted are these: 9 with respect to 7; reaction with cumyloxyl radicals/ROS, 1 equivalent sacrificial PMHC. Here is the method: Compounds 7 and 8 were oxidized/activated in air equilibrated acetonitrile solution upon photolysis of a 100 μM dicumyl peroxide. Irradiation was performed within a fluorimeter to generate ROS upon exciting with ultraviolet light at 263 nm (2.4 mW/cm^2). The fluorescence intensity at the emission maxima of the probes was monitored over time.
Activation of the dormant photosensitizer 7 or 8 (deactivation of PeT) following their reaction with ROS was subsequently tested in the presence of alkoxyl radicals. These ROS were generated at a constant rate upon photolysis at 263 nm of an air equilibrated 100 μM dicumyl peroxide solution in acetonitrile. We followed over time the increase in fluorescence intensity (drop in PeT) to monitor the extent of activation, see FIG. 16. Activation was complete once the intensity reached a plateau.^28,45 At this point, the trap segment in 7 and 8 reacted to completion with alkoxyl radicals to generate 9 and 10, respectively. […] Deactivation of PeT in the singlet excited state in turn manifested in the ca. 7-fold and 2-fold emission enhancements recorded for 9 vs 7, and 10 vs 8, respectively (FIG. 16).

Values after ≈ are worked out from the molar mass of the structure shown.

`CC1=C(I)C(C)=[N+]2C1=C(C)c1c(C)c(I)c(C)n1[B-]2(F)F` [Compound 3, 2,6-diiodo-1,3,5,7,8-pentamethyl-pyrromethene fluoroborate]: in data set [1], the “increase in kdec upon halogen substitution” value was “ca. 27 fold”; the “kdec (fluorescence decay rate constant)” value is on record as 476.2 ± 0.7 × 10^7 s^−1; the “knr (non-radiative decay rate constant, (1−φf)×kdec)” value is 463.0 ± 0.7 × 10^7 s^−1; the “krad (radiative rate constant, φf×kdec)” value is recorded as 13.1 ± 0.2 × 10^7 s^−1.

As for `CC1=C(Br)C(C)=[N+]2C1=C(C)c1c(C)c(Br)c(C)n1[B-]2(F)F` [Compound 4, 2,6-dibromo-1,3,5,7,8-pentamethyl-pyrromethene fluoroborate], in data set [1], the “increase in kdec upon halogen substitution” value is 3.1 fold; the “kdec (fluorescence decay rate constant)” value was 55.3 ± 0.2 × 10^7 s^−1; the “knr (non-radiative decay rate constant, (1−φf)×kdec)” value is listed as 44.2 ± 0.2 × 10^7 s^−1; the “krad (radiative rate constant, φf×kdec)” value is 11.0 ± 0.2 × 10^7 s^−1.

For `CC(=O)OCC1=C2C(C)=C(I)C(C)=[N+]2[B-](F)(F)n2c(C)c(I)c(C)c21` [Compound 5, 8-Acetoxymethyl-2,6-diiodo-1,3,5,7-tetramethyl Pyrromethene Fluoroborate], in data set [1], the “increase in kdec upon halogen substitution” value is on record as approximately 42 fold; the “kdec (fluorescence decay rate constant)” value is given as 625.0 ± 0.7 × 10^7 s^−1; the “knr (non-radiative decay rate constant, (1−φf)×kdec)” value was 582.0 ± 0.7 × 10^7 s^−1; the “krad (radiative rate constant, φf×kdec)” value was 12.5 ± 0.2 × 10^7 s^−1.

In the case of `CC(=O)OCC1=C2C(C)=C(Br)C(C)=[N+]2[B-](F)(F)n2c(C)c(Br)c(C)c21` [Compound 6, 8-Acetoxymethyl-2,6-dibromo-1,3,5,7-tetramethyl Pyrromethene Fluoroborate], in data set [1], the “increase in kdec upon halogen substitution” value is recorded as 4.5 fold; the “kdec (fluorescence decay rate constant)” value is 66.7 ± 0.3 × 10^7 s^−1; the “knr (non-radiative decay rate constant, (1−φf)×kdec)” value is recorded as 57.4 ± 0.2 × 10^7 s^−1; the “krad (radiative rate constant, φf×kdec)” value is on record as 9.3 ± 0.1 × 10^7 s^−1.

By MIC is commonly meant the lowest concentration that inhibits growth of the organism. Consider `CC1=C(Br)C(C)=[N+]2C1=C(CC1(C)CCc3c(C)c(O)c(C)c(C)c3O1)c1c(C)c(Br)c(C)n1[B-]2(F)F` (centres unmarked) [Compound 7, 8-((6-Hydroxy-2,5,7,8-tetramethylchroman-2-yl)-methyl)-2,6-dibromo-1,3,5,7-tetramethyl], for which, in data set [2] (light 0 to 60 minutes, 1.6 mW/cm^2, 520 nm, ciprofloxacin 1 microgram per milliliter only or Br2B-PMHC 10 micromolar only), the “colony forming units upon prolonged illumination, single agent” value was “no observed reduction in colony forming units”. For the same molecule, the “colony forming units upon illumination in the presence of ciprofloxacin” value in data set [2] (light, 1 microgram per milliliter ciprofloxacin and 5 or 10 micromolar Br2B-PMHC) is listed as “clear reduction in colony forming units”. Further, the MIC in data set [3] (ATCC25922, light or radiation study, under light irradiation) came to 40 µM (≈ 25 µg/mL); in data set [3] (ATCC25922, dark conditions), 40 µM (≈ 25 µg/mL); in data set [4] (Escherichia coli, ATCC25922, 7 activated in the stressed bacterial suspension (500 nM hydrogen peroxide), 9 pre-activated with dicumyl peroxide, 1 hour, read-out: PD-MIC), 10 µM (≈ 6.24 µg/mL). In addition, the “colony forming units after irradiation, stressed cells” value in data set [4] (E. coli incubated with 500 nM hydrogen peroxide 2 h, 1 h irradiation 2.6 mW/cm^2, 520 nm) is “drastic drop in colony forming units”. In addition, the “colony forming units, dark controls” value in data set [4] (in the dark, 7 with or without H2O2) is given as “no effect in the CFU”. Further, the “colony forming units after irradiation, non-stressed cells” value in data set [4] (no H2O2, 1 h irradiation 2.6 mW/cm^2, 520 nm) is recorded as “No inactivation was observed”. The “singlet oxygen quenching rate constant kq” value in data set [5] was determined as 2e+08 M⁻¹ s⁻¹. In addition, the “enhancement in φΔ^D (^1O2 production) on activation” value in data set [6] was approximately 40 fold.
